Laboratory results reported in ChEMBL document CHEMBL1201862, “PubChem BioAssay data set” (2004).
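Each compound was tested at five concentrations against cells in 96-well plates for 48 hours. GI50 is the concentration that inhibits growth by half.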 Activity calls are given as the source filed them. No stated cut-off is given here; in the data, active = GI50 up to about 1.1 µM and inactive = higher.

Experiments:
Assay in all cases: growth of human tumour cells (NCI), 48 h
[1] = tested on: 786-0
[2] = tested on: A498
[3] = tested on: A549
[4] = tested on: ACHN
[5] = tested on: BT-549
[6] = tested on: CAKI-1
[7] = tested on: CCRF-CEM
[8] = tested on: COLO 205
[9] = tested on: DU-145
[10] = tested on: EKVX
[11] = tested on: HCT-15
[12] = tested on: HL-60
[13] = tested on: HOP-62
[14] = tested on: HOP-92
[15] = tested on: HT-29
[16] = tested on: Hs-578T
[17] = tested on: IGROV-1
[18] = tested on: K562
[19] = tested on: KM12
[20] = tested on: LOX IMVI
[21] = tested on: M14
[22] = tested on: MCF7
[23] = tested on: MDA-MB-231
[24] = tested on: MDA-MB-435
[25] = tested on: MDA-N
[26] = tested on: MOLT-4
[27] = tested on: Malme-3M
[28] = tested on: NCI-H23
[29] = tested on: NCI-H460
[30] = tested on: NCI-H522
[31] = tested on: NCI/ADR-RES
[32] = tested on: OVCAR-3
[33] = tested on: OVCAR-4
[34] = tested on: OVCAR-5
[35] = tested on: OVCAR-8
[36] = tested on: PC-3
[37] = tested on: RPMI-8226
[38] = tested on: RXF 393
[39] = tested on: SF-268
[40] = tested on: SF-295
[41] = tested on: SF-539
[42] = tested on: SK-MEL-28
[43] = tested on: SK-MEL-2
[44] = tested on: SK-MEL-5
[45] = tested on: SK-OV-3
[46] = tested on: SN12C
[47] = tested on: SNB-19
[48] = tested on: SNB-75
[49] = tested on: SR
[50] = tested on: SW-620
[51] = tested on: T47D
[52] = tested on: TK-10
[53] = tested on: U-251
[54] = tested on: UACC-257
[55] = tested on: UACC-62
[56] = tested on: UO-31
[57] = tested on: HCC 2998
[58] = tested on: HCT-116
[59] = tested on: NCI-H226

Measured: GI50

COc1c(O)cc2c(c1O)C(=O)/C(=C/c1ccc(O)cc1)CO2
14.8 µM: [11]
inactive: [1] 30.8 µM | [2] 40 µM | [3] 31 µM | [4] 19.8 µM | [5] 32.9 µM | [6] 22.2 µM | [7] 18.1 µM | [8] 17.6 µM | [9] 27.1 µM | [10] 28.8 µM | [12] 30.1 µM | [13] 33.1 µM | [14] 36.1 µM | [15] 20.1 µM | [16] 30.2 µM | [17] 24.7 µM | [18] 28.9 µM | [19] 13.6 µM | [20] 21.7 µM | [21] 28.1 µM | [22] 34.7 µM | [23] 40.2 µM | [24] 33.6 µM | [25] 28.7 µM | [26] 36 µM | [27] 30.2 µM | [28] 26.8 µM | [29] 30.1 µM | [30] 14.4 µM | [31] 22.9 µM | [32] 27.2 µM | [33] 20.1 µM | [34] 29 µM | [35] 17.9 µM | [36] 43 µM | [37] 9.33 µM | [38] 33.7 µM | [39] 29.1 µM | [40] 37.7 µM | [41] 20.5 µM | [42] 17.7 µM | [43] 27 µM | [44] 22 µM | [45] 24.7 µM | [46] 23 µM | [47] 30.8 µM | [48] 21.2 µM | [49] 13.5 µM | [50] 26.7 µM | [51] 30.8 µM | [52] 35.5 µM | [53] 33.7 µM | [54] 31.9 µM | [55] 19.2 µM | [56] 23 µM

Oc1nc2c(c(-c3cccc(Cl)c3)n1)COC/C2=C\c1cccc(Cl)c1
> 100 µM: [11]
inactive: [1] > 100 µM | [2] > 100 µM | [4] > 100 µM | [5] > 100 µM | [6] > 100 µM | [7] 64.4 µM | [8] > 100 µM | [9] > 100 µM | [10] > 100 µM | [57] > 100 µM | [58] > 100 µM | [13] > 100 µM | [14] > 100 µM | [16] > 100 µM | [17] > 100 µM | [18] > 100 µM | [19] > 100 µM | [20] > 100 µM | [21] > 100 µM | [22] > 100 µM | [23] > 100 µM | [24] > 100 µM | [25] > 100 µM | [26] > 100 µM | [59] > 100 µM | [28] > 100 µM | [29] > 100 µM | [30] > 100 µM | [31] > 100 µM | [32] > 100 µM | [33] > 100 µM | [34] > 100 µM | [35] > 100 µM | [36] > 100 µM | [37] 69.7 µM | [38] > 100 µM | [39] > 100 µM | [40] > 100 µM | [41] > 100 µM | [43] > 100 µM | [44] > 100 µM | [45] > 100 µM | [46] > 100 µM | [47] > 100 µM | [48] > 100 µM | [49] > 100 µM | [50] > 100 µM | [51] > 100 µM | [52] > 100 µM | [53] > 100 µM | [54] > 100 µM | [55] > 100 µM | [56] > 100 µM

CC1(C)CCC2(C(=O)OC3OC(CO)C(O)C(O)C3O)CCC3(CO)C(=CCC4C5(C)CC(O)C(O)C(C)(C(=O)OC6OC(CO)C(O)C(O)C6O)C5CCC43C)C2C1 (stereo unspecified)
inactive: [1] > 100 µM | [2] > 100 µM | [3] > 100 µM | [4] > 100 µM | [5] > 100 µM | [6] > 100 µM | [8] > 100 µM | [9] > 100 µM | [10] > 100 µM | [57] > 100 µM | [58] > 100 µM | [12] 39 µM | [13] > 100 µM | [14] > 100 µM | [15] > 100 µM | [16] > 100 µM | [17] > 100 µM | [18] > 100 µM | [19] > 100 µM | [20] > 100 µM | [21] > 100 µM | [22] > 100 µM | [23] > 100 µM | [24] > 100 µM | [25] > 100 µM | [26] > 100 µM | [27] > 100 µM | [59] > 100 µM | [28] > 100 µM | [29] > 100 µM | [30] > 100 µM | [31] > 100 µM | [32] > 100 µM | [33] > 100 µM | [34] > 100 µM | [35] > 100 µM | [36] > 100 µM | [38] > 100 µM | [39] > 100 µM | [40] > 100 µM | [41] > 100 µM | [42] > 100 µM | [43] > 100 µM | [44] > 100 µM | [45] > 100 µM | [46] > 100 µM | [47] > 100 µM | [48] > 100 µM | [49] 44.8 µM | [50] > 100 µM | [51] > 100 µM | [52] > 100 µM | [53] > 100 µM | [54] > 100 µM | [55] > 100 µM | [56] > 100 µM
> 100 µM: [11]

O=C1Nc2ccc(Br)cc2/C1=N/NC(=S)Nc1ccc(F)cc1
active: [5] 0.395 µM | [17] 0.948 µM | [28] 0.794 µM
1.37 µM: [11]
inactive: [1] 7.67 µM | [2] 2.26 µM | [4] 3.43 µM | [6] 2.12 µM | [8] 4.02 µM | [9] 4.3 µM | [58] 3.87 µM | [12] 1.6 µM | [13] 8.07 µM | [14] 3.61 µM | [15] 5.38 µM | [16] 12 µM | [18] 3.61 µM | [19] 5.11 µM | [20] 4.7 µM | [22] 3.43 µM | [23] 12.6 µM | [24] 2.4 µM | [25] 2.98 µM | [26] 2.58 µM | [27] 4.95 µM | [59] 9.84 µM | [29] 1.59 µM | [30] 10.5 µM | [31] 1.48 µM | [32] 13.3 µM | [33] 7.24 µM | [34] 43.2 µM | [35] 4.25 µM | [36] 5.27 µM | [38] 1.76 µM | [39] 4.31 µM | [40] 3.69 µM | [41] 9.91 µM | [42] 3.94 µM | [43] 10.9 µM | [44] 3.67 µM | [45] 13.2 µM | [46] 4.15 µM | [48] 11.1 µM | [49] 1.71 µM | [50] 4.78 µM | [51] 4.9 µM | [52] 5.86 µM | [53] 3.53 µM | [54] 9.77 µM | [55] 2.56 µM

OC1(c2ccccc2)CSC2=Nc3ccccc3C3CCN1N23 (stereo unspecified)
inactive: [1] 18.7 µM | [2] 14.6 µM | [3] 26.8 µM | [4] 19 µM | [5] 23.1 µM | [6] 21.1 µM | [7] 26.2 µM | [8] 17.7 µM | [9] 15.6 µM | [10] 3.89 µM | [57] 26.9 µM | [58] 29.3 µM | [12] 30.1 µM | [13] 14.5 µM | [14] 18.9 µM | [15] 18.1 µM | [16] 24.2 µM | [17] 13.3 µM | [18] 38.6 µM | [19] 16.7 µM | [20] 19 µM | [21] 21.9 µM | [22] 15.6 µM | [23] 15.5 µM | [24] 17 µM | [25] 14.1 µM | [26] 30.5 µM | [27] 22.4 µM | [59] 38.1 µM | [28] 27.7 µM | [29] 13.4 µM | [30] 20 µM | [31] 18.5 µM | [32] 26.7 µM | [33] 23.1 µM | [34] 11.1 µM | [35] 19.5 µM | [36] 15.3 µM | [38] 20.9 µM | [39] 21.7 µM | [40] 6.47 µM | [41] 16.9 µM | [42] 4.16 µM | [43] 15.8 µM | [44] 17.7 µM | [45] 32.7 µM | [46] 23.5 µM | [47] 15.5 µM | [48] 3.75 µM | [49] 20 µM | [50] 21.4 µM | [51] 16.6 µM | [52] 22.3 µM | [53] 14.9 µM | [54] 23.4 µM | [55] 18.7 µM | [56] 15.4 µM
17.6 µM: [11]
